The nature of this experiment: Antagonist activity at human CCR5 receptor by chemotaxis assay.

IC50 data for one compound are collected here from BindingDB's records for doi:10.1016/j.bmcl.2011.01.015 (Incyte, 2011).

Usually IC50 stands for the point on the concentration scale where inhibition reaches its midpoint. Read a low IC50 as greater potency in that assay.

`CO[C@@H]1COCC[C@@H]1N[C@@H]1CC[C@](CC(F)(F)F)(C(=O)N2CCN(c3cc(C(F)(F)F)ccn3)CC2)C1` [((1S,3R)-3-((3S,4S)-3-methoxy-tetrahydro-2H-pyran-4-ylamino)-1-(2,2,2-trifluoroethyl)cyclopentyl)(4-(4-(trifluoromethyl)pyridin-2-yl)piperazin-1-yl)methanone] yielded an IC50 of 11 nM.
